Measurements published in patent publication US6436940B1, “Indane or dihydroindole derivatives” (H. Lundbeck A/S, priority 1996, dated 2002).
pIC50: −log10 of the molar value. Structures can show the parent of a compound that is named as a salt.

Experiments:
[1] = target: T1, dopamine D4 receptors in cloned human dopamine receptor subtype 4.2 membranes (Homo sapiens, UniProt P21917, DEL265-296); test: 3H-YM-09151-2 binding; conditions: 3H-YM-09151-2, cloned human D4.2 membranes
T1 construct: purchased Dupharma A/S, Denmark CRM-016
T1 sequence (P21917 with tags, fused parts or gaps DEL265-296): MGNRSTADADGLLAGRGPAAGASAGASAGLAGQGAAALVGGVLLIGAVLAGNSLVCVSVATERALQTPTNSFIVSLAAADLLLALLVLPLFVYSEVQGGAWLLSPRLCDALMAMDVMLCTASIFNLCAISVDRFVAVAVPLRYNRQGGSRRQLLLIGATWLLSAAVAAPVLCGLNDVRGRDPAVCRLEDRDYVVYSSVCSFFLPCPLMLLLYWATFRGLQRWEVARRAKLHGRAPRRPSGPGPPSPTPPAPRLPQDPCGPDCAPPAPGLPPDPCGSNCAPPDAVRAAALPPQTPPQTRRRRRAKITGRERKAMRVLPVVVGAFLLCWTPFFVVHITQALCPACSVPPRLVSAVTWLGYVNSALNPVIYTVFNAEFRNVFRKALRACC
Description: By this method the inhibition by drugs of the binding of the dopamine D4 antagonist ^3H-YM-09151-2 to dopamine D4 receptors in cloned human dopamine receptor subtype 4.2 membranes is determined in vitro. Accordingly, this is a test for affinity for dopamine D4 receptors. The test is performed using a preparation of cloned dopamine D4 cell membranes CRM-016®, Dupharma A/S, Denmark, in accordance with the product specifications.

pIC50 [1]	Compound	also measured
8.25	c1ccc2c(c1)CCC2CCN1CCN(c2ccc3c(c2)OCO3)CC1 (centres unmarked) [Compound 6a, 1-[2-[4-(3,4-Methylenedioxyphenyl)-piperazine-1-yl]ethyl]-indane]	–
8.74	c1ccc2c(c1)CC(CN1CCN(c3ccc4c(c3)OCO4)CC1)C2 [Compound 6b]	–
8.37	O=C(CCCN1CCN(c2ccc3c(c2)OCO3)CC1)C1CNc2ccccc21 (centres unmarked) [Compound 9a, 2,3-Dihydro-3-[4-[4[(3,4-methylenedioxyphenyl)piperazine-1-yl]butyl-1-oxo]]-1H-indole]	–
8.43	CC(=O)N1CC(CCN2CCN(c3ccc4c(c3)OCO4)CC2)c2ccccc21 (centres unmarked) [Compound 9b, 1-Acetyl-2,3-dihydro-3-[2-[4-[(3,4-methylenedioxyphenyl)piperazine-1-yl]ethyl]]1H-indole]	–

The remaining lines, values behind:

Compound	pIC50 [1]	also measured
c1ccc2c(c1)CCC2CCN1CCN(c2ccc3c(c2)OCO3)CC1 (centres unmarked) (as salt: fumarate) [Compound 6a, 1-[2-[4-(3,4-Methylenedioxyphenyl)-piperazine-1-yl]ethyl]-indane]	–	melting point: 191 to 192 °C
c1ccc2c(c1)CC(CN1CCN(c3ccc4c(c3)OCO4)CC1)C2 (as salt: oxalate) [Compound 6b]	–	melting point: 197 to 199 °C
c1ccc2c(c1)CCC2CN1CCN(c2ccc3c(c2)OCO3)CC1 (centres unmarked) [Compound 4a]	8.06	–
Brc1ccc2c(c1)C(CN1CCN(c3ccc4c(c3)OCO4)CC1)CC2 (centres unmarked) [Compound 4b]	–	% inhibition of binding at 50 nM ([1]; at 50 nM): 33% at 50 nM
